Earlier results as cited in patent US20260374742A1, “METHODS OF PREPARING CARBAMATE DERIVATIVES” (NodThera Limited, priority 2022, published 2026).

Tested on: NLRP3 inflammasome
Settings: literature report
In the case of O=[N+]([O-])C=Cc1ccc2c(c1)OCO2 [3,4-methylenedioxy-β-nitrostyrene], the “inhibition of NLRP3 activation (in words)” value (from here on “inhibition”) is listed as “impair NLRP3 activation”. For NC[C@@H]1O[C@H](c2ccccc2)Cc2c1ccc(O)c2O [A-68930], the “inhibition” value is listed as “impair NLRP3 activation”. For Cc1ccc(S(=O)(=O)/C=C/C#N)cc1 [Bay 11-7082], the “inhibition” value is listed as “impair NLRP3 activation”. In the case of CC(C)(O)c1coc(S(=O)(=O)NC(=O)Nc2c3c(cc4c2CCC4)CCC3)c1 [CP-456,773], the “inhibition” value is given as “specific inhibitor of NLRP3 activation”. In the case of COc1ccc(Cl)cc1C(=O)NCCc1ccc(S(=O)(=O)NC(=O)NC2CCCCC2)cc1 [Glyburide], the “inhibition” value is given as “specific inhibitor of NLRP3 activation”. In the case of OC[C@H]1O[C@@H](c2ccc(Cl)c(Cc3ccc(O[C@H]4CCOC4)cc3)c2)[C@H](O)[C@@H](O)[C@@H]1O [epigliflozin], the “inhibition” value is given as “impair NLRP3 activation”. For CNCCC(Oc1ccc(C(F)(F)F)cc1)c1ccccc1 (stereo not shown) [fluoxetine], the “inhibition” value is listed as “impair NLRP3 activation”. In the case of OC(CNCC(O)C1CCc2cc(F)ccc2O1)C1CCc2cc(F)ccc2O1 (stereo not shown) [nebivolol], the “inhibition” value is listed as “impair NLRP3 activation”. In the case of C=C1C(=O)O[C@H]2[C@H]1CC/C(C)=C/CC[C@@]1(C)O[C@@H]21 [parthenolide], the “inhibition” value is listed as “impair NLRP3 activation”. In the case of O=c1c(O)c(-c2ccc(O)c(O)c2)oc2cc(O)cc(O)c12 [quercetin], the “inhibition” value is given as “suppress NLRP3 activation”. In the case of C[S+]([O-])CCCCN=C=S (stereo not shown) [sulforaphane], the “inhibition” value is given as “suppress NLRP3 activation”. In the case of salvianolic acid, the “inhibition” value is listed as “suppress NLRP3 activation”.

Same assay, conditions: literature; concentrations unlikely attainable in vivo
For COc1ccc(Cl)cc1C(=O)NCCc1ccc(S(=O)(=O)NC(=O)NC2CCCCC2)cc1 [Glyburide], the “concentrations at which NLRP3 activation is inhibited (in words)” value is given as “micromolar concentrations”.
